Reference: patent US11254663B2 (BRISTOL-MYERS SQUIBB COMPANY, priority 2019, dated 2022)

Each molecule was assayed against FXR (Homo sapiens (Human), UniProt Q96RI1) (assay: transient human FXR/Gal4-luciferase reporter assay). Settings: not given.
Type: cell-based
In short: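 HEK293 cells stably carrying a 5×Gal4 response element–firefly luciferase reporter were transiently transfected overnight with a Gal4 DBD–human FXR LBD fusion plasmid. Compound was added in DMSO and cells were incubated overnight at 37 °C, 5% CO2. Activity was read as Steady-Glo luminescence.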

FXR, sequence (Q96RI1 262-486): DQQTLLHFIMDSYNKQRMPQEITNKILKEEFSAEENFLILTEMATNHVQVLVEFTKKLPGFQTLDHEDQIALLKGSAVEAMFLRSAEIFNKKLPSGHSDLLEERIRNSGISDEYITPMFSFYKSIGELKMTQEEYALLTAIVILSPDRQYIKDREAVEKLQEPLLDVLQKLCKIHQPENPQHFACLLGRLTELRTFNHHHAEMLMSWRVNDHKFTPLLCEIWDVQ

| SMILES | EC50 |
| --- | --- |
| CCOc1ncc(-c2cccc(N(CC34CCC(c5nc(C(C)(C)C)no5)(CC3)CC4)C(=O)C34CC(N)(C3)C4)c2)cn1 [Example 506, 3-amino-N-((4-(3-(tert-butyl)-1,2,4-oxadiazol-5-yl)bicyclo[2.2.2]octan-1-yl)methyl)-N-(3-(2-ethoxypyrimidin-5-yl)phenyl)bicyclo[1.1.1]pentane-1-carboxamide] | 2.37 µM |
| CCOc1ncc(-c2cccc(N(CC34CCC(c5nc(C(C)(C)C)no5)(CC3)CC4)C(=O)[C@H]3C[C@@H](OC)C3)c2)cn1 [Example 502, (1S,3S)—N-((4-(3-(tert-butyl)-1,2,4-oxadiazol-5-yl)bicyclo[2.2.2]octan-1-yl)methyl)-N-(3-(2-ethoxypyrimidin-5-yl)phenyl)-3-methoxycyclobutane-1-carboxamide] | 0.689 µM |
| CC(C)(O)c1ccc(-c2cccc(N(CC34CCC(c5noc(C(C)(C)F)n5)(CC3)CC4)C(=O)NCC(F)(F)CO)c2)cc1 [Example 646, 3-(2,2-difluoro-3-hydroxypropyl)-1-((4-(5-(2-fluoropropan-2-yl)-1,2,4-oxadiazol-3-yl)bicyclo[2.2.2]octan-1-yl)methyl)-1-(4′-(2-hydroxypropan-2-yl)-[1,1′-biphenyl]-3-yl)urea] | 0.27 µM |
| CC(C)(C)c1noc(C23CCC(CN(C(=O)C45CC(F)(C4)C5)c4cncc(-c5cnc(C6CC6)nc5)c4)(CC2)CC3)n1 [Example 473, N-((4-(3-(tert-butyl)-1,2,4-oxadiazol-5-yl)bicyclo[2.2.2]octan-1-yl)methyl)-N-(5-(2-cyclopropylpyrimidin-5-yl)pyridin-3-yl)-3-fluorobicyclo[1.1.1]pentane-1-carboxamide] | 0.501 µM |
| Cc1nc2ccc(-c3ccnc(N(CC45CCC(c6cc(C7CC7)nn6C)(CC4)CC5)C(=O)C45CC(F)(C4)C5)c3)cc2s1 [Example 546, N-((4-(3-cyclopropyl-1-methyl-1H-pyrazol-5-yl)bicyclo[2.2.2]octan-1-yl)methyl)-3-fluoro-N-(4-(2-methylbenzo[d]thiazol-6-yl)pyridin-2-yl)bicyclo[1.1.1]pentane-1-carboxamide] | 0.048 µM |
| CC1(O)CC(C(=O)N(CC23CCC(c4noc(C(C)(C)C)n4)(CC2)CC3)c2cccc(-c3ccc(OC(F)F)cc3)c2)C1 [Example 517, (1S,3S)—N-((4-(5-(tert-butyl)-1,2,4-oxadiazol-3-yl)bicyclo[2.2.2]octan-1-yl)methyl)-N-(4′-(difluoromethoxy)-[1,1′-biphenyl]-3-yl)-3-hydroxy-3-methylcyclobutane-1-carboxamide] | 0.255 µM |

Same assay, conditions: Gal4-hFXR fusion construct, HEK293 reporter cells; response relative to 8 μM GW-4064

| EC50 | SMILES |
| --- | --- |
| 0.064 µM | CC(C)(O)c1ccc(-c2cccc(N(CC34CCC(c5noc(C(C)(C)F)n5)(CC3)CC4)C(=O)[C@H]3C[C@](O)(C(F)(F)F)C3)n2)cc1 [Example 595, (cis)-N-((4-(5-(2-fluoropropan-2-yl)-1,2,4-oxadiazol-3-yl)bicyclo[2.2.2]octan-1-yl)methyl)-3-hydroxy-N-(6-(4-(2-hydroxypropan-2-yl)phenyl)pyridin-2-yl)-3-(trifluoromethyl)cyclobutane-1-carboxamide] |
| 0.111 µM | CCOc1ncc(-c2ccnc(N(CC34CCC(c5nc(C6CC6)no5)(CC3)CC4)C(=O)C34CC(F)(C3)C4)c2)cn1 [Example 548, N-((4-(3-cyclopropyl-1,2,4-oxadiazol-5-yl)bicyclo[2.2.2]octan-1-yl)methyl)-N-(4-(2-ethoxypyrimidin-5-yl)pyridin-2-yl)-3-fluorobicyclo[1.1.1]pentane-1-carboxamide] |
| 0.192 µM | CCOc1ncc(-c2cccc(N(CC34CCC(c5noc(C(F)F)n5)(CC3)CC4)C(=O)C34CC(F)(C3)C4)c2)cn1 [Example 459, N-((4-(5-(difluoromethyl)-1,2,4-oxadiazol-3-yl)bicyclo[2.2.2]octan-1-yl)methyl)-N-(3-(2-ethoxypyrimidin-5-yl)phenyl)-3-fluorobicyclo[1.1.1]pentane-1-carboxamide] |
| 0.819 µM | CC(C)Oc1ccc(-c2cccc(N(CC34CCC(c5cc(C6(F)CC6)nn5C)(CC3)CC4)C(=O)OC(C)(C)C(F)(F)F)c2)cc1 [Example 655, 1,1,1-trifluoro-2-methylpropan-2-yl ((4-(3-(1-fluorocyclopropyl)-1-methyl-1H-pyrazol-5-yl)bicyclo[2.2.2]octan-1-yl)methyl)(4′-isopropoxy-[1,1′-biphenyl]-3-yl)carbamate] |
| 0.018 µM | CC(C)(C)c1nc(C23CCC(CN(C(=O)C45CC(F)(C4)C5)c4cc(-c5ncc(OC(F)F)cn5)ccn4)(CC2)CC3)no1 [Example 541, N-((4-(5-(tert-butyl)-1,2,4-oxadiazol-3-yl)bicyclo[2.2.2]octan-1-yl)methyl)-N-(4-(5-(difluoromethoxy)pyrimidin-2-yl)pyridin-2-yl)-3-fluorobicyclo[1.1.1]pentane-1-carboxamide] |
| 1.3 µM | CC(C)(O)c1ccc(-c2cccc(N(CC34CCC(c5noc(C(C)(C)F)n5)(CC3)CC4)C(=O)N3CC4(C3)CS(=O)(=O)C4)c2)cc1 [Example 641, N-((4-(5-(2-fluoropropan-2-yl)-1,2,4-oxadiazol-3-yl)bicyclo[2.2.2]octan-1-yl)methyl)-N-(4′-(2-hydroxypropan-2-yl)-[1,1′-biphenyl]-3-yl)-2-thia-6-azaspiro[3.3]heptane-6-carboxamide 2,2-dioxide] |
| 0.034 µM | CC(C)(C#N)Oc1ccc(-c2ccnc(N(CC34CCC(c5nc(C6CC6)no5)(CC3)CC4)C(=O)OC(C)(C)C(F)(F)F)c2)cc1 [Example 622, 1,1,1-trifluoro-2-methylpropan-2-yl(4-(4-((2-cyanopropan-2-yl)oxy)phenyl)pyridin-2-yl) ((4-(3-cyclopropyl-1,2,4-oxadiazol-5-yl)bicyclo[2.2.2]octan-1-yl)methyl)carbamate] |
| 0.465 µM | Cn1nc(C23CCC(CN(C(=O)C45CC(F)(C4)C5)c4cccc(-c5cnc6nc(C7CC7)sc6c5)c4)(CC2)CC3)cc1C1CC1 [Example 410, N-((4-(5-cyclopropyl-1-methyl-1H-pyrazol-3-yl)bicyclo[2.2.2]octan-1-yl)methyl)-N-(3-(2-cyclopropylthiazolo[4,5-b]pyridin-6-yl)phenyl)-3-fluorobicyclo[1.1.1]pentane-1-carboxamide] |
| 0.349 µM | O=C(N(CC12CCC(c3nc(C(F)F)no3)(CC1)CC2)c1cccc(-c2cnc(C3CC3)nc2)c1)C12CC(F)(C1)C2 [Example 466, N-(3-(2-cyclopropylpyrimidin-5-yl)phenyl)-N-((4-(3-(difluoromethyl)-1,2,4-oxadiazol-5-yl)bicyclo[2.2.2]octan-1-yl)methyl)-3-fluorobicyclo[1.1.1]pentane-1-carboxamide] |

| SMILES | EC50 |
| --- | --- |
| Cc1ccc(-c2cccc(N(CC34CCC(c5nc(C6CC6)no5)(CC3)CC4)C(=O)C34CC(F)(C3)C4)c2)nn1 [Example 295, N-((4-(3-cyclopropyl-1,2,4-oxadiazol-5-yl)bicyclo[2.2.2]octan-1-yl)methyl)-3-fluoro-N-(3-(6-methylpyridazin-3-yl)phenyl)bicyclo[1.1.1]pentane-1-carboxamide] | 0.839 µM |
| CS(=O)(=O)Nc1cccc(-c2cccc(N(CC34CCC(c5nc(C6CC6)no5)(CC3)CC4)C(=O)C34CC(F)(C3)C4)c2)c1 [Example 256, N-((4-(3-cyclopropyl-1,2,4-oxadiazol-5-yl)bicyclo[2.2.2]octan-1-yl)methyl)-3-fluoro-N-(3′-(methylsulfonamido)-[1,1′-biphenyl]-3-yl)bicyclo[1.1.1]pentane-1-carboxamide] | 0.219 µM |
| O=C(N(CC12CCC(c3nc(C4CC4)no3)(CC1)CC2)c1cccc(-c2cccc(C(F)(F)F)c2)c1)C12CC(F)(C1)C2 [Example 252, N-((4-(3-cyclopropyl-1,2,4-oxadiazol-5-yl)bicyclo[2.2.2]octan-1-yl)methyl)-3-fluoro-N-(3′-(trifluoromethyl)-[1,1′-biphenyl]-3-yl)bicyclo[1.1.1]pentane-1-carboxamide] | 0.833 µM |
| Cc1nc2ccc(-c3cccc(N(CC45CCC(c6noc(C7(C)CC7)n6)(CC4)CC5)C(=O)C45CC(F)(C4)C5)c3)cc2s1 [Example 402, 3-fluoro-N-(3-(2-methylbenzo[d]thiazol-6-yl)phenyl)-N-((4-(5-(1-methylcyclopropyl)-1,2,4-oxadiazol-3-yl)bicyclo[2.2.2]octan-1-yl)methyl)bicyclo[1.1.1]pentane-1-carboxamide] | 0.035 µM |
| CCc1ccc(-c2cccc(N(CC34CCC(c5noc(C(C)(C)C)n5)(CC3)CC4)C(=O)C34CC(F)(C3)C4)c2)cc1 [Example 456, N-((4-(5-(tert-butyl)-1,2,4-oxadiazol-3-yl)bicyclo[2.2.2]octan-1-yl)methyl)-N-(4′-ethyl-[1,1′-biphenyl]-3-yl)-3-fluorobicyclo[1.1.1]pentane-1-carboxamide] | 0.106 µM |
| N#Cc1cc2sccc2nc1-c1cccc(N(CC23CCC(c4nc(C5CC5)no4)(CC2)CC3)C(=O)C23CC(F)(C2)C3)c1 [Example 316, N-(3-(6-cyanothieno[3,2-b]pyridin-5-yl)phenyl)-N-((4-(3-cyclopropyl-1,2,4-oxadiazol-5-yl)bicyclo[2.2.2]octan-1-yl)methyl)-3-fluorobicyclo[1.1.1]pentane-1-carboxamide] | 0.138 µM |
| Cc1nc2ccc(-c3cccc(N(CC45CCC(c6nc(C7CC7)no6)(CC4)CC5)C(=O)C45CC(F)(C4)C5)c3)cn2n1 [Example 324, N-((4-(3-cyclopropyl-1,2,4-oxadiazol-5-yl)bicyclo[2.2.2]octan-1-yl)methyl)-3-fluoro-N-(3-(2-methyl-[1,2,4]triazolo[1,5-a]pyridin-6-yl)phenyl)bicyclo[1.1.1]pentane-1-carboxamide] | 0.25 µM |
| Cc1nc2cc(-c3cccc(N(CC45CCC(c6nc(C7CC7)no6)(CC4)CC5)C(=O)C45CC(F)(C4)C5)c3)ccc2o1 [Example 305, N-((4-(3-cyclopropyl-1,2,4-oxadiazol-5-yl)bicyclo[2.2.2]octan-1-yl)methyl)-3-fluoro-N-(3-(2-methylbenzo[d]oxazol-5-yl)phenyl)bicyclo[1.1.1]pentane-1-carboxamide] | 0.301 µM |
